Structures can show the parent of a compound that is named as a salt.
molecular target: Ras GEF SOS (Son of Sevenless) (Homo sapiens, UniProt Q07889); assay: SOS-mediated nucleotide exchange on Ras (BODIPY-GDP fluorescence); assay type: biochemical; details: SOS-mediated exchange of BODIPY-GDP for GTP on Ras
Method: Compounds of the present invention were tested for their ability to modify the rate at which Ras exchanges a labeled nucleotide guanosine diphosphate (GDP) analog for guanosine triphosphate (GTP). Briefly, test compounds, then GTP and the Ras GEF SOS (Son of Sevenless) are added to a buffered solution containing Ras protein loaded with BODIPY-GDP. Changes in fluoresence indicating exchange of the labeled GDP for GTP are monitored over time. Raw fluorescence data was fit to a single exponential decay function and derived rates were plotted as mean values. EC50 values were calculated by plotting mean derived rates as a function of compound concentration and fit using a four-parameter dose-response curve. This assay is performed in a method analogous to the assay disclosed in: Burns, M. C.; Sun, Q.; Daniels, R. N.; Camper, D. V.; Kennedy, J. P.; Phan, J.; Olejniczak, E. O.; Lee, T.; Waterson, A. G.; Rossanese, O. W.; Fesik, S. W. “Approach for targeting Ras with small molecules that activate SOS-mediated nucleotide exchange” Proc. Natl. Acad. Sci. 2014; 11(9): 3401-3406. PMCID: PMC3948241.

Chain of Ras GEF SOS (Son of Sevenless) (Q07889 564-1049 limits assumed): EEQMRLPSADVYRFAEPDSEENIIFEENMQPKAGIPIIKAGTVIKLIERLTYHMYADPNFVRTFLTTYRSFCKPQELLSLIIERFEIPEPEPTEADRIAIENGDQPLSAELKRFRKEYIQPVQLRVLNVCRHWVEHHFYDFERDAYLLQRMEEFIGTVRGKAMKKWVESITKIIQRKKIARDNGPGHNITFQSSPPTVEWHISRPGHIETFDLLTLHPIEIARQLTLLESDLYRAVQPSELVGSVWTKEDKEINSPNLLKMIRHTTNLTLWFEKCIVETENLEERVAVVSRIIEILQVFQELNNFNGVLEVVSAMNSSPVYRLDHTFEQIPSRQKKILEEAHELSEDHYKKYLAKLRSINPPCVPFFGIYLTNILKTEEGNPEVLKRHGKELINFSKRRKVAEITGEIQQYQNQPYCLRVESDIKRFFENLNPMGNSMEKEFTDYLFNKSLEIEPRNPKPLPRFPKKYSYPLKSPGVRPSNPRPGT
Chain of Ras GEF SOS (Son of Sevenless) (P01112 1-166 partner limits assumed): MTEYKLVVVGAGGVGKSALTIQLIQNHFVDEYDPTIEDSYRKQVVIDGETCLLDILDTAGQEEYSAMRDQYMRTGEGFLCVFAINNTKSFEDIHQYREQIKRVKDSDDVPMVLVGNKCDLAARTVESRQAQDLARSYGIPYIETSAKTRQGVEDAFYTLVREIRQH

SMILES	EC50
Nc1nc2ccccc2n1Cc1ccc(F)cc1 [Example 1, 1-(4-fluorobenzyl)-1H-benzo[d]imidazol-2-amine]	30 to 100 µM
Cc1cc2nc(N)n(Cc3cc(F)cc(F)c3)c2cc1C [Example 6, 1-(3,5-difluorobenzyl)-5,6-dimethyl-1H-benzo[d]imidazol-2-amine]	30 to 100 µM
Cc1ccc2c(n1)nc(N1CCNCC1)n2Cc1ccc(F)c(Cl)c1 [Example 256, 1-(3-chloro-4-fluorobenzyl)-5-methyl-2-(piperazin-1-yl)-1H-imidazo[4,5-b]pyridine]	5 to 30 µM
Oc1ccc(-c2cccc3c2nc(N2CCNCC2)n3Cc2ccc(F)c(Cl)c2)cc1 [Example 264, 4-[1-[(3-chloro-4-fluorophenyl)methyl]-2-piperazin-1-ylbenzimidazol-4-yl]phenol]	5 to 30 µM
Cc1cc(Cn2c(NC3CCNC3)nc3c(-c4ccccc4)nccc32)ccc1F (stereo not drawn) [Example 222, 1-(4-fluoro-3-methylbenzyl)-4-phenyl-N-(pyrrolidin-3-yl)-1H-imidazo[4,5-c]pyridin-2-amine]	5 to 30 µM
Cc1cc2c(nc(NCCN)n2Cc2cccc(C#N)c2)c(-c2ccccc2Cl)c1C [Example 117, 3-((2-((2-aminoethyl)amino)-4-(2-chlorophenyl)-5,6-dimethyl-1H-benzo[d]imidazol-1-yl)methyl)benzonitrile trifluoroacetate]	1 to 5 µM
Cc1ccc2nc([C@H](N)CO)n(Cc3cccc(Cl)c3)c2c1 [Example 271, (2S)-2-amino-2-[1-[(3-chlorophenyl)methyl]-6-methylbenzimidazol-2-yl]ethanol]	30 to 100 µM
CC(C)N1CC[C@@H](C(=O)c2ccccc2)[C@H]1c1cc(Cl)cc2c1nc(N1CCNCC1)n2Cc1ccc(F)c(Cl)c1 [Example 152, ((2S,3R)-2-(6-chloro-1-(3-chloro-4-fluorobenzyl)-2-(piperazin-1-yl)-1H-benzo[d]imidazol-4-yl)-1-isopropylpyrrolidin-3-yl)(phenyl)methanone trifluoroacetate]	1 to 5 µM
Cc1ccc2nc(NCCN)n(Cc3ccc(F)c(Cl)c3)c2c1 [Example 60, N^1-(1-(3-chloro-4-fluorobenzyl)-6-methyl-1H-benzo[d]imidazol-2-yl)ethane-1,2-diamine trifluoroacetate]	1 to 5 µM
Fc1cc(F)cc(Cn2c(N3CCOCC3)nc3ccccc32)c1 [Example 13, 4-(1-(3,5-difluorobenzyl)-1H-benzo[d]imidazol-2-yl)morpholine]	30 to 100 µM
Cc1cc(Cn2c(NCCN)nc3c(-c4ccccc4)nccc32)ccc1F [Example 221, N^1-(1-(4-fluoro-3-methylbenzyl)-4-phenyl-1H-imidazo[4,5-c]pyridin-2-yl)ethane-1,2-diamine]	30 to 100 µM
Fc1cc(F)cc(Cn2c(C3CCNCC3)nc3ccccc32)c1 [Example 57, 1-(3,5-difluorobenzyl)-2-(piperidin-4-yl)-1H-benzo[d]imidazole trifluoroacetate]	5 to 30 µM
Cc1cc(Cn2c(N3CCNCC3)nc3c(-c4ccccc4)nccc32)ccc1F [Example 220, 1-(4-fluoro-3-methylbenzyl)-4-phenyl-2-(piperazin-1-yl)-1H-imidazo[4,5-c]pyridine]	5 to 30 µM
COc1ccc(-c2cccc3c2nc(N2CCNCC2)n3Cc2ccc(F)c(Cl)c2)cc1OC [Example 88, 1-(3-chloro-4-fluorobenzyl)-4-(3,4-dimethoxyphenyl)-2-(piperazin-1-yl)-1H-benzo[d]imidazole]	1 to 5 µM
Cc1cc2c(nc(N3CCNCC3)n2Cc2ccc(F)c(C)c2)c(CN2CCOCC2)n1 [Example 237, 4-((1-(4-fluoro-3-methylbenzyl)-6-methyl-2-(piperazin-1-yl)-1H-imidazo[4,5-c]pyridin-4-yl)methyl)morpholine]	30 to 100 µM
Cc1cc2nc(N)n(Cc3ccc(Cl)cc3)c2cc1C [Example 5, 1-(4-chlorobenzyl)-5,6-dimethyl-1H-benzo[d]imidazol-2-amine]	30 to 100 µM
Cc1ccc2c(n1)nc(NCCN)n2Cc1ccc(F)c(Cl)c1 [Example 257, N^1-(1-(3-chloro-4-fluorobenzyl)-5-methyl-1H-imidazo[4,5-b]pyridin-2-yl)ethane-1,2-diamine]	5 to 30 µM
Cc1cc2nc(C3CCNCC3)n(Cc3ccc(F)c(Cl)c3)c2cc1C [Example 59, 1-(3-chloro-4-fluorobenzyl)-5,6-dimethyl-2-(piperidin-4-yl)-1H-benzo[d]imidazazole trifluoroacetate]	5 to 30 µM
Cc1ccc2nc([C@@H](N)C(C)C)n(Cc3cccc(Cl)c3)c2c1 [Example 270, (S)-1-(1-(3-chlorobenzyl)-6-methyl-1H-benzo[d]imidazol-2-yl)-2-methylpropan-1-amine]	30 to 100 µM
Cc1cc2c(nc(N3CCNCC3)n2Cc2ccc(F)c(C)c2)c(CN2CCC(O)CC2)n1 [Example 238, 1-((1-(4-fluoro-3-methylbenzyl)-6-methyl-2-(piperazin-1-yl)-1H-imidazo[4,5-c]pyridin-4-yl)methyl)piperidin-4-ol]	30 to 100 µM

SMILES	EC50
Cc1cnc2nc(N3CCNCC3)n(Cc3ccc(F)c(C)c3)c2c1 [Example 244, 1-(4-fluoro-3-methylbenzyl)-6-methyl-2-(piperazin-1-yl)-1H-imidazo[4,5-b]pyridine]	5 to 30 µM
Cc1cc2nc(N)n(Cc3ccc(F)cc3)c2cc1C [Example 3, 1-(4-fluorobenzyl)-5,6-dimethyl-1H-benzo[d]imidazol-2-amine]	30 to 100 µM
COc1ccccc1C#Cc1ccccc1-c1cc(Cl)cc2c1nc(N1CCNCC1)n2Cc1cc(C)c(F)c(C)c1 [Example 186, 6-chloro-1-(4-fluoro-3,5-dimethylbenzyl)-4-(2-((2-methoxyphenyl)ethynyl)phenyl)-2-(piperazin-1-yl)-1H-benzo[d]imidazole trifluoroacetate]	5 to 30 µM
Fc1ccc(Cn2c(N3CCOCC3)nc3ccccc32)cc1 [Example 9, 4-(1-(4-fluorobenzyl)-1H-benzo[d]imidazol-2-yl)morpholine]	30 to 100 µM
NCCNc1nc2ccccc2n1Cc1cc(F)cc(F)c1 [Example 15, N^1-(1-(3,5-difluorobenzyl)-1H-benzo[d]imidazol-2-yl)ethane-1,2-diamine trifluoroacetate]	5 to 30 µM
Clc1ccc(Cn2c(Cl)nc3ncccc32)cc1 [Example 254, 2-chloro-1-(4-chlorobenzyl)-1H-imidazo[4,5-b]pyridine]	30 to 100 µM
Cc1cc2nc(NCCN(C)C)n(Cc3ccc(F)c(Cl)c3)c2cc1C [Example 28, N^1-(1-(3-chloro-4-fluorobenzyl)-5,6-dimethyl-1H-benzo[d]imidazol-2-yl)-N^2,N^2-dimethylethane-1,2-diamine trifluoroacetate]	1 to 5 µM
Nc1nc2ccccc2n1Cc1ccc(F)c(Cl)c1 [Example 2, 1-(3-chloro-4-fluorobenzyl)-1H-benzo[d]imidazol-2-amine]	30 to 100 µM
Fc1ccc(Cn2cnc3ncccc32)cc1 [Example 253, 1-(4-fluorobenzyl)-1H-imidazo[4,5-b]pyridine]	30 to 100 µM
Cc1cc(Cn2c(NCCN)nc3c(O)cccc32)ccc1F [Example 295, 2-((2-aminoethyl)amino)-1-(4-fluoro-3-methylbenzyl)-1H-benzo[d]imidazol-4-ol]	5 to 30 µM
Fc1cc(F)cc(Cn2c(N3CCNCC3)nc3ccccc32)c1 [Example 14, 1-(3,5-difluorobenzyl)-2-(piperazin-1-yl)-1H-benzo[d]imidazole trifluoroacetate]	5 to 30 µM
NCc1ccc2c(c1)nc(N1CCNCC1)n2Cc1ccc(F)c(Cl)c1 [Example 281, [1-[(3-chloro-4-fluorophenyl)methyl]-2-piperazin-1-ylbenzimidazol-5-yl]methanamine]	5 to 30 µM
Cc1cc2c(nc(NCCN)n2Cc2ccc(F)c(Cl)c2)c(CN2CCCC2)c1C [Example 146, N^1-(1-(3-chloro-4-fluorobenzyl)-5,6-dimethyl-4-(pyrrolidin-1-ylmethyl)-1H-benzo[d]imidazol-2-yl)ethane-1,2-diamine trifluoroacetate]	1 to 5 µM
Fc1ccc(Cn2c(N3CCNCC3)nc3ncccc32)cc1 [Example 249, 1-(4-fluorobenzyl)-2-(piperazin-1-yl)-1H-imidazo[4,5-b]pyridine]	5 to 30 µM
NCCNc1nc2ncccc2n1Cc1ccc(F)cc1 [Example 250, N^1-(1-(4-fluorobenzyl)-1H-imidazo[4,5-b]pyridin-2-yl)ethane-1,2-diamine]	5 to 30 µM
Cc1ccc2nc([C@@H](N)Cc3ccc(O)cc3)n(Cc3ccc(F)cc3)c2c1 [Example 272, 4-[(2S)-2-amino-2-[1-[(4-fluorophenyl)methyl]-6-methylbenzimidazol-2-yl]ethyl]phenol]	30 to 100 µM
Cc1cc2nc(NCCO)n(Cc3ccc(F)cc3)c2cc1C [Example 23, 2-((1-(4-fluorobenzyl)-5,6-dimethyl-1H-benzo[d]imidazol-2-yl)amino)ethan-1-ol]	30 to 100 µM
Cc1cc2c(nc(N3CCNCC3)n2Cc2ccc(F)c(C)c2)c(CN2CCCC2)n1 [Example 236, 1-(4-fluoro-3-methylbenzyl)-6-methyl-2-(piperazin-1-yl)-4-(pyrrolidin-1-ylmethyl)-1H-imidazo[4,5-c]pyridine]	30 to 100 µM
Fc1ccc(Cn2c(N3CCOCC3)nc3ccccc32)cc1Cl [Example 8, 4-(1-(3-chloro-4-fluorobenzyl)-1H-benzo[d]imidazol-2-yl)morpholine]	30 to 100 µM

Source: patent publication US10501421B1, “Substituted benzimidazoles as modulators of Ras signaling” (VANDERBILT UNIVERSITY, priority 2017, dated 2019)
